# Values of other authors as cited in patent US20220409609A1, “INJECTABLE FORMULATION OF HYDROXYCHLOROQUINE” (Luckwel Pharmaceuticals Inc., priority 2021, published 2022).
# Where a name gives a salt, the structure may show the parent alone.
# Tests used:
# [1] = water at 25° C.
structure (smiles),measurement,setting,value
"CCN(CCO)CCCC(C)Nc1ccnc2cc(Cl)ccc12 (racemic) [Hydroxychloroquine sulfate, 2-[[4-[(7-Chloro-4-quinolyl)amino]pentyl]ethylamino] ethanol sulfate (1:1)]",time at which hydroxychloroquine concentrations peak after dosing,,3 to 4 h
same,solubility in water,[1],freely soluble
